This is an account of results in patent US4085134A, “Amino-phosphonic-sulfonic acids” (Petrolite Corporation, priority 1974, dated 1978).

A short description of assay [1]: Calcium Scale Inhibition Test. Conditions: 180° F, samples at 2 and 4 hour periods. As to the method:
Calcium Scale Inhibition Test
The procedure utilized to determine the effectiveness of scale inhibitors in regard to calcium scale is as follows:
Several 50 ml. samples of a 0.04 sodium bicarbonate solution are placed in 100 ml. bottles. To these solutions is added the inhibitor in various known concentrations. 50 ml. samples of a 0.02 M CaCl2 solution are then added.
A total hardness determination is then made on the 50-50 mixture utilizing the well known Schwarzenbach titration. The samples are placed in a water bath and heated at 180° F. 10 ml. samples are taken from each bottle at 2 and 4 hour periods. These samples are filtered through millipore filters and the total hardness of the filtrates are determined by titration.

The conditions of assay [2]: powerful sequesterants; background statement; cited from earlier work.

Structures can show the parent of a compound that is named as a salt.

For `O=P(O)(O)CN(CCCS(=O)(=O)O)C1CCCCC1` [Example 1], the “% Inhibition (calcium scale inhibition)” value in assay [1] (100 ppm) is reported as 86%.
Consider `O=P(O)(O)CN(CCCS(=O)(=O)O)CCN(CCN(CCCS(=O)(=O)O)CP(=O)(O)O)CP(=O)(O)O` [Example 15], for which the “% Inhibition (calcium scale inhibition)” value in assay [1] (10 ppm) is listed as 42%; in assay [1] (50 ppm), 95%.
`O=P(O)(O)CN(CCCS(=O)(=O)O)CCN(CCCS(=O)(=O)O)CP(=O)(O)O` [Example 11]: the “% Inhibition (calcium scale inhibition)” value was 95% in assay [1] (50 ppm) and 100% in assay [1] (100 ppm).
Regarding `CCCCCCCCN(CCCS(=O)(=O)O)CP(=O)(O)O` [Example 4], the “% Inhibition (calcium scale inhibition)” value is 24% in assay [1] (100 ppm) and 60% in assay [1] (200 ppm).
Consider `O=P(O)(O)CN(CCCS(=O)(=O)O)CCN(CCN(CP(=O)(O)O)CP(=O)(O)O)CP(=O)(O)O` [Example 14], for which the “% Inhibition (calcium scale inhibition)” value in assay [1] (10 ppm) is on record as 66%; in assay [1] (100 ppm), 100%.
Turning to `O=C(O)CN(CCN(CC(=O)O)CC(=O)O)CC(=O)O` [ethylenediamine tetracetic acid salts, ethylenediamine tetracetic acid], in assay [2], the threshold activities result is reported as “no threshold activities”.
